Key:
C57/BL6J mice = assay: In vivo plasma GLP-1 level-increasing action: plasma active GLP-1 level (ELISA) after oral administration; details: Table 6, Experiment 1, 10 mg/kg oral
Experimental: Seven-week-old male C57/BL6J mice were purchased from CLEA Japan, Inc. for use, and they were subjected to an experiment after 1 week of a habituation period.
After the habituation period, the mice were subjected to 5.5 hours of food deprivation and 2 hours of water deprivation. Thereafter, a cyclic dipeptide dissolved or suspended in a 0.5% CMC-Na aqueous solution in 10 mg/kg was orally administered to each mouse forcibly. After 30 minutes, the blood was collected from the abdominal vena cava under anesthesia, and 1 μL of heparin sodium and 1 μL of 10 mM Sitagliptin phosphate were added to each collected blood, which was then subjected to centrifugation at 8000 rpm for 10 minutes to recover the plasma, and the plasma active GLP-1 level was measured by using the ELISA kit. In the analysis, the active GLP-1 level for a group administered with 0.5% CMC-Na aqueous solution was defined as 100, and relative values thereto were used.

NCI-H716 cells = assay: In vitro GLP-1 secretion-accelerating action: amount of active GLP-1 secreted (ELISA); assay type: cell-based; details: 1 hour; for Significant difference (p < 0.05) vs control group, amount of active GLP-1 secreted: 10 mM, Student's t-test; for Amount of active GLP-1 secreted (relative value to control group as 100), average value: cyclic dipeptide 10 mM with 10 μM Sitagliptin phosphate, group with no cyclic dipeptide = 100
Experimental: Among the cyclic dipeptides, 92 highly water-soluble cyclic dipeptides were used in the following experiment. In each well of a Poly-L-Lysine 96-well plate, NCI-H716 cells suspended in 100 μL of a DMEM (with 10% FBS, 2 mM glutamine, and 1% antibiotics added in advance) were seeded at 0.5×10^5 cells/well, and cultured in a CO2 incubator (manufactured by ESPEC CORP.) for 48 hours. After washing with PBS(+), 100 μL of a PBS(+) solution with each cyclic dipeptide at a final concentration of 10 mM and 10 μM of Sitagliptin phosphate added therein was added to the cells. After 1 hour, the resultant solution was recovered, and the amount of active GLP-1 in the solution was measured by using the ELISA kit. In the analysis, the amount of active GLP-1 for a group with no cyclic dipeptide added was defined as 100, and relative values thereto were used.

| SMILES | Significant difference (p < 0.05) vs control group, amount of active GLP-1 secreted (NCI-H716 cells; Table 3, Experiment 3) | Amount of active GLP-1 secreted (relative value to control group as 100), average value (NCI-H716 cells; Table 3, Experiment 3) | further results |
| --- | --- | --- | --- |
| CSCC[C@@H]1NC(=O)[C@@H]2CCCN2C1=O [compound 18, cyclo-methionyl-proline] | – | – | Significant difference (p < 0.05) vs control group, plasma active GLP-1 level (C57/BL6J mice; 30 minutes, Student's t-test): Yes; Plasma active GLP-1 level (relative value to control group as 100), average value (C57/BL6J mice; blood 30 minutes after, 0.5% CMC-Na group = 100): 138; Significant difference (p < 0.05) vs control group, amount of active GLP-1 secreted (NCI-H716 cells; Table 1, Experiment 1): Yes; Amount of active GLP-1 secreted (relative value to control group as 100), average value (NCI-H716 cells; Table 1, Experiment 1): 338 |
| NCCCC[C@@H]1NC(=O)[C@H](CCC(N)=O)NC1=O [compound 102, Cyclo(Gln-Lys)] | No | 112 | – |
| O=C1NC(Cc2cnc[nH]2)C(=O)NC1Cc1cnc[nH]1 (centres unmarked) [compound 107, cyclo-histidyl-histidine] | Yes | 182 | – |
| CC(O)C1NC(=O)C(Cc2cnc[nH]2)NC1=O (centres unmarked) [compound 109, cyclo-threonyl-histidine] | Yes | 290 | – |
| O=C(O)CC1NC(=O)C(Cc2cnc[nH]2)NC1=O (centres unmarked) [compound 110, cyclo-aspartyl-histidine] | Yes | 340 | – |
| NC(=O)C[C@@H]1NC(=O)[C@H](Cc2cnc[nH]2)NC1=O [compound 111, cyclo-asparaginyl-histidine] | Yes | 341 | – |
| NC(N)=NCCC[C@@H]1NC(=O)[C@H](Cc2cnc[nH]2)NC1=O [compound 112, Cyclo(Arg-His)] | No | 106 | – |
| C[C@@H]1NC(=O)[C@H](CCC(=O)O)NC1=O [compound 113, Cyclo(Glu-Ala)] | No | 157 | – |
| CC1NC(=O)C(C(C)O)NC1=O (centres unmarked) [compound 114, Cyclo(Thr-Ala)] | No | 89 | – |
| CC(O)C1NC(=O)CNC1=O (centres unmarked) [compound 116, Cyclo(Thr-Gly)] | No | 146 | – |
| NC(N)=NCCC[C@@H]1NC(=O)CNC1=O [compound 117, Cyclo(Arg-Gly)] | No | 98 | – |
| CC1NC(=O)CNC1=O (centres unmarked) [compound 121, Cyclo(Gly-Ala)] | No | 153 | – |
| C[C@@H]1NC(=O)[C@H](CC(N)=O)NC1=O [compound 124, Cyclo(Asn-Ala)] | No | 116 | – |
| NC(=O)CC[C@@H]1NC(=O)CNC1=O [compound 126, cyclo-glutaminyl-glycine] | Yes | 210 | – |
| NC(=O)C[C@@H]1NC(=O)[C@H](CCC(=O)O)NC1=O [compound 129, Cyclo(Asn-Glu)] | No | 118 | – |
| NC(=O)CC[C@@H]1NC(=O)[C@H](CCC(=O)O)NC1=O [compound 130, Cyclo(Gln-Glu)] | No | 120 | – |
| NC(=O)CC[C@@H]1NC(=O)[C@H](CO)NC1=O [compound 136, Cyclo(Gln-Ser)] | No | 251 | – |
| CC(O)C1NC(=O)C(CCCCN)NC1=O (centres unmarked) [compound 143, Cyclo(Thr-Lys)] | No | 105 | – |
| C[C@@H]1NC(=O)[C@H](CC(=O)O)NC1=O [compound 153, Cyclo(Asp-Ala)] | No | 94 | – |

| SMILES | Significant difference (p < 0.05) vs control group, amount of active GLP-1 secreted (NCI-H716 cells; Table 3, Experiment 3) | Amount of active GLP-1 secreted (relative value to control group as 100), average value (NCI-H716 cells; Table 3, Experiment 3) | further results |
| --- | --- | --- | --- |
| O=C1CNC(=O)[C@H](CO)N1 [compound 154, Cyclo(Ser-Gly)] | No | 116 | – |
| CC(O)C1NC(=O)C(CCC(=O)O)NC1=O (centres unmarked) [compound 157, Cyclo(Thr-Glu)] | No | 139 | – |
| NC(N)=NCCC[C@@H]1NC(=O)[C@H](CO)NC1=O [compound 159, cyclo-arginyl-serine] | Yes | 135 | – |
| C[C@H](O)[C@@H]1NC(=O)[C@H](CC(=O)O)NC1=O [compound 165, Cyclo(Asp-Thr)] | No | 140 | – |
| C[C@H](O)[C@@H]1NC(=O)[C@H](CC(N)=O)NC1=O [compound 166, Cyclo(Asn-Thr)] | No | 149 | – |
| C[C@H](O)[C@@H]1NC(=O)[C@H](CCC(N)=O)NC1=O [compound 167, Cyclo(Gln-Thr)] | No | 156 | – |
| C[C@H](O)[C@@H]1NC(=O)[C@H](CCCN=C(N)N)NC1=O [compound 168, Cyclo(Arg-Thr)] | No | 142 | – |
| NC(=O)C[C@@H]1NC(=O)[C@H](CC(=O)O)NC1=O [compound 170, Cyclo(Asn-Asp)] | No | 125 | – |
| NC(=O)CCC1NC(=O)C(CC(=O)O)NC1=O (centres unmarked) [compound 171, Cyclo(Gln-Asp)] | No | 120 | – |
| CSCCC1NC(=O)C(CC(=O)O)NC1=O (centres unmarked) [compound 172, Cyclo(Met-Asp)] | – | – | Significant difference (p < 0.05) vs control group, amount of active GLP-1 secreted (NCI-H716 cells; Table 4, Experiment 4): No; Amount of active GLP-1 secreted (relative value to control group as 100), average value (NCI-H716 cells; Table 4, Experiment 4): 141 |
| CSCCC1NC(=O)C(CC(N)=O)NC1=O (centres unmarked) [compound 175, cyclo-asparaginyl-methionine] | – | – | Significant difference (p < 0.05) vs control group, amount of active GLP-1 secreted (NCI-H716 cells; Table 4, Experiment 4): Yes; Amount of active GLP-1 secreted (relative value to control group as 100), average value (NCI-H716 cells; Table 4, Experiment 4): 218 |
| NC(=O)CCC1NC(=O)C(CCC(N)=O)NC1=O (centres unmarked) [compound 176, Cyclo(Gln-Gln)] | – | – | Significant difference (p < 0.05) vs control group, amount of active GLP-1 secreted (NCI-H716 cells; Table 4, Experiment 4): No; Amount of active GLP-1 secreted (relative value to control group as 100), average value (NCI-H716 cells; Table 4, Experiment 4): 111 |
| CSCC[C@@H]1NC(=O)[C@H](CCC(N)=O)NC1=O [compound 186, cyclo-glutaminyl-methionine] | – | – | Significant difference (p < 0.05) vs control group, amount of active GLP-1 secreted (NCI-H716 cells; Table 4, Experiment 4): Yes; Amount of active GLP-1 secreted (relative value to control group as 100), average value (NCI-H716 cells; Table 4, Experiment 4): 191 |
| NC(=O)CCC1NC(=O)C2CCCN2C1=O (centres unmarked) [compound 188, Cyclo(Gln-Pro)] | – | – | Significant difference (p < 0.05) vs control group, amount of active GLP-1 secreted (NCI-H716 cells; Table 4, Experiment 4): No; Amount of active GLP-1 secreted (relative value to control group as 100), average value (NCI-H716 cells; Table 4, Experiment 4): 132 |
| N=C(N)NCCC[C@@H]1NC(=O)[C@H](Cc2c[nH]c3ccccc23)NC1=O [compound 189, cyclo-tryptophanyl-arginine] | – | – | Significant difference (p < 0.05) vs control group, amount of active GLP-1 secreted (NCI-H716 cells; Table 4, Experiment 4): Yes; Amount of active GLP-1 secreted (relative value to control group as 100), average value (NCI-H716 cells; Table 4, Experiment 4): 314 |
| O=C(O)CCC1NC(=O)C(CO)NC1=O (centres unmarked) [compound 192, cyclo-seryl-glutamic acid] | – | – | Significant difference (p < 0.05) vs control group, amount of active GLP-1 secreted (NCI-H716 cells; Table 4, Experiment 4): Yes |
| N=C(N)NCCC[C@@H]1NC(=O)[C@H](CC(N)=O)NC1=O [compound 197, cyclo-asparaginyl-arginine] | – | – | Significant difference (p < 0.05) vs control group, amount of active GLP-1 secreted (NCI-H716 cells; Table 4, Experiment 4): Yes; Amount of active GLP-1 secreted (relative value to control group as 100), average value (NCI-H716 cells; Table 4, Experiment 4): 359 |
| NC(=O)CC1NC(=O)C2CCCN2C1=O (centres unmarked) [compound 201, cyclo-asparaginyl-proline] | – | – | Significant difference (p < 0.05) vs control group, amount of active GLP-1 secreted (NCI-H716 cells; Table 4, Experiment 4): Yes; Amount of active GLP-1 secreted (relative value to control group as 100), average value (NCI-H716 cells; Table 4, Experiment 4): 430 |
| N=C(N)NCCC[C@@H]1NC(=O)[C@H](CCCNC(=N)N)NC1=O [compound 212, cyclo-arginyl-arginine] | – | – | Significant difference (p < 0.05) vs control group, amount of active GLP-1 secreted (NCI-H716 cells; Table 4, Experiment 4): Yes; Amount of active GLP-1 secreted (relative value to control group as 100), average value (NCI-H716 cells; Table 4, Experiment 4): 1050 |

Reference: patent publication US20170143701A1, “CARBOHYDRATE METABOLISM-AMELIORATING AGENT” (SUNTORY HOLDINGS LIMITED, priority 2014, published 2017)
